# Data reported in patent publication US20070203066A1, “Compositions and methods for inhibiting cellular proliferation” (priority 2005, published 2007).
# Primed or numbered codes have the meaning given here. No end group written: not given here. Ida(3) = iminodiacetic acid linker, Lys side-chain amines bound to its two carboxyl groups; Ida(4) = iminodiacetic acid linker (dimerization linker bound to lysine side chain); GP3 = not defined here
# System: HUVECs
# Type: cell-based
# Conditions: HUVEC proliferation, bFGF at 10 ng/ml or VEGF at 5 ng/ml, 48 hours, BrdU incorporation; read-out: IC50 on HUVECs
# Outline: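 HUVECs seeded at 5,000 cells/well in EBM with 2% FCS, adhered ≥12 hours, then stimulated with bFGF 10 ng/ml or VEGF 5 ng/ml plus varying peptide concentrations. After 48 hours at 37 ° C, 5% CO2, proliferation inhibition read by BrdU incorporation.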
row,Substance,IC50 [µM]
1,"396 (Ac-ARRRRQAVWIYFK; not fully specified (residue 13, C-terminus); also: homodimer of residues 1-13 via Ida linker at Lys13 side chain) [compound 396]",< 10
2,"397 (Ac-ARRRRQAVYIYFK; not fully specified (residue 13, C-terminus); also: homodimer of residues 1-13 via Ida linker at Lys13 side chain) [compound 397]",< 10
3,"398 (Ac-ARRRRQAVLIYFK; not fully specified (residue 13, C-terminus); also: homodimer of residues 1-13 via Ida linker at Lys13 side chain) [compound 398]",< 10
4,"399 (Ac-ARRRRQAVRIYFK; not fully specified (residue 13, C-terminus); also: homotrimer via ATA linker at Lys13 side chain) [compound 399]",< 10
5,"400 (Ac-DRRRRQAVAIYFK; not fully specified (residue 13, C-terminus); also: homodimer of residues 1-13 via Ida linker at Lys13 side chain) [compound 400]",< 10
6,"401 (Ac-ERRRRQAVAIYFK(Ida(3))-NH2; also: homodimer via Ida linker on Lys13 side chain, Ida amine Boc) [compound 401]",< 10
7,"402 (Ac-FRRRRQAVAIYFK(Ida(3))-NH2; also: homodimer via Ida linker on Lys13 side chain, Ida amine Boc) [compound 402]",< 10
8,"403 (Ac-GRRRRQAVAIYFK(Ida(3))-NH2; also: homodimer via Ida linker on Lys13 side chain, Boc on Ida amine) [compound 403]",< 10
9,"404 (Ac-IRRRRQAVAIYFK(Ida(3))-NH2; also: homodimer via Ida linker on Lys13 side chain, Boc on Ida amine) [compound 404]",< 10
10,"405 (Ac-LRRRRQAVAIYFK(Ida(3))-NH2; also: homodimer via Ida linker on Lys13 side chain, Boc on Ida amine) [compound 405]",< 10
11,"406 (Ac-MRRRRQAVAIYFK; not fully specified (residue 13, C-terminus); also: homodimer via Ida linker on Lys side chains, linker at 13 via Ida, other end not in the chain) [compound 406]",< 10
12,"407 (Ac-NRRRRQAVAIYFK; not fully specified (residue 13, C-terminus); also: homodimer via Ida linker on Lys side chains, linker at 13 via Ida, other end not in the chain) [compound 407]",< 10
13,"408 (Ac-PRRRRQAVAIYFK; not fully specified (residue 13, C-terminus); also: homodimer via Ida linker on Lys side chains, linker at 13 via Ida, other end not in the chain) [compound 408]",< 10
14,"409 (Ac-QRRRRQAVAIYFK; not fully specified (residue 13, C-terminus); also: homodimer via Ida linker on Lys side chains, linker at 13 via Ida, other end not in the chain) [compound 409]",< 10
15,"410 (Ac-SRRRRQAVAIYFK; not fully specified (residue 13, C-terminus); also: homodimer via Ida linker on Lys side chains, linker at 13 via Ida, other end not in the chain) [compound 410]",< 10
16,"411 (Ac-TRRRRQAVAIYFK; not fully specified (residue 13, C-terminus); also: homodimer via Ida linker on Lys side chains, linker at 13 via Ida, other end not in the chain) [compound 411]",< 10
17,"412 (Ac-VRRRRQAVAIYFK; not fully specified (residue 13, C-terminus); also: homodimer via Ida linker on Lys side chains, linker at 13 via Ida, other end not in the chain) [compound 412]",< 10
18,"413 (Ac-WRRRRQAVAIYFK; not fully specified (residue 13, C-terminus); also: homodimer via Ida linker on Lys side chains, linker at 13 via Ida, other end not in the chain) [compound 413]",< 10
19,"414 (Ac-YRRRRQAVAIYFK; not fully specified (residue 13, C-terminus); also: homodimer via Ida linker on Lys side chains, linker at 13 via Ida, other end not in the chain) [compound 414]",< 10
20,"415 (Ac-ARRRRQAVRIKFV; not fully specified (residue 11, bridges); also: homodimer of residues 1-13 via Ida linker on K11 side chain) [compound 415]",< 10
21,"416 (Ac-ARRRRQAVRIKF; not fully specified (residue 11); also: homodimer via Ida linker on Lys side chains, linker at 11 via Ida, other end not in the chain) [compound 416]",< 10

row,Substance,IC50 [µM]
1,"417 (Ac-RRRRRQAVAIKFV; not fully specified (residue 11); also: homodimer via Ida linker on Lys side chains, linker at 11 via Ida, other end not in the chain) [compound 417]",< 10
2,"418 (Ac-ARRRRQPVAIYFK; not fully specified (residue 13, C-terminus); also: homodimer of residues 1-13 via Ida linker on K13 side chain) [compound 418]",< 10
3,"419 (Ac-ARRRRQQVAIYFK; not fully specified (residue 13, C-terminus); also: homodimer of residues 1-13 via Ida linker on K13 side chain) [compound 419]",< 10
4,"420 (Ac-ARRRRQSVAIYFK; not fully specified (residue 13, C-terminus); also: homodimer of residues 1-13 via Ida linker on K13 side chain) [compound 420]",< 10
5,421 (Ac-RRRRRQAVAIKF; not fully specified (residue 11); also: homodimer of residues 1-12 via Ida linker on K11 side chain) [compound 421],< 10
6,"422 (Ac-ARRRRQTVAIYFK; not fully specified (residue 13, C-terminus); also: homodimer of residues 1-13 via Ida linker on K13 side chain) [compound 422]",< 10
7,423 (Ac-ARRRRQRVAIKFV; not fully specified (residue 11); also: homodimer of residues 1-13 via Ida linker on K11 side chain) [compound 423],< 10
8,"424 (Ac-ARRRRQWVAIYFK; not fully specified (residue 13, C-terminus); also: homodimer of residues 1-13 via Ida linker on K13 side chain) [compound 424]",< 10
9,425 (Ac-ARRRRQRVAIKF; not fully specified (residue 11); also: homodimer of residues 1-12 via Ida linker on Lys11 side chain) [compound 425],< 10
10,"426 (Ac-ARRRRQYVAIYFK; not fully specified (residue 13, C-terminus); also: homodimer of residues 1-13 via Ida linker on Lys13 side chain) [compound 426]",< 10
11,427 (Ac-ARRRRQAVAIK(Ida(4))F; also: homodimer of residues 1-12 via Ida linker on Lys11 side chain) [compound 427],< 10
12,428 (Ac-ARRRRQAVAIK(GP3)F; reading uncertain; also: homodimer via GP3 linker at K11) [compound 428],< 10
13,429 (Ac-ARRRRQAVAIK(Ida(4))FI; also: homodimer via Ida linker at K11) [compound 429],< 10
14,430 (Ac-ARRRRQAVAIK(Ida(4))YF; also: homodimer via Ida linker at K11) [compound 430],< 10
15,431 (Ac-ARRRRQAVAIYK(Ida(4))F; also: homodimer via Ida linker at K12) [compound 431],< 10
16,433 (Ac-RRRREQAVAIYFK(Ida(4)); not fully specified (C-terminus); also: homodimer via Ida linker at K13) [compound 433],10 to 30
17,434 (Ac-RRRRFQAVAIYFK(Ida(4)); not fully specified (C-terminus); also: homodimer via Ida linker at K13) [compound 434],< 10
18,435 (Ac-RRRRGQAVAIYFK(Ida(4)); not fully specified (C-terminus); also: homodimer via Ida linker at K13) [compound 435],< 10
19,436 (Ac-RRRRLQAVAIYFK(Ida(4)); not fully specified (C-terminus); also: homodimer via Ida linker at K13) [compound 436],< 10
20,437 (Ac-RRRRMQAVAIYFK(Ida(4)); not fully specified (C-terminus); also: homodimer via Ida linker at K13) [compound 437],< 10
21,438 (Ac-RRRRNQAVAIYFK(Ida(4)); not fully specified (C-terminus); also: homodimer via Ida linker at K13) [compound 438],< 10
